A short description of this assay: Inhibition of human serum complement system-mediated hemolysis.
`CC/C=C/CCCCCCCC/C=C/C1=CC(C)OC1=O` (single isomer, unassigned) [LITSEALACTONE A] displayed an IC50 of 787 µM.

Regarding `C=C/C=C/CCCCCCCC/C=C/C1=C[C@H](C)OC1=O` [AKOLACTONE B], the IC50 is 58 µM. Against the preceding compound, the IC50 is about 14-fold lower. In turn, `C#CCCCCCCCC/C=C/C1=C[C@H](C)OC1=O` [HAMABIWALACTONE A] showed an IC50 of 714 µM. For `C=CCCCCCCCC/C=C/C1=C[C@H](C)OC1=O` [HAMABIWALACTONE B] the value was 149 µM.

In the case of `O=C(/C=C/c1ccc(O)c(O)c1)O[C@H](Cc1ccc(O)c(O)c1)C(=O)O` [ROSMARINIC ACID], the midpoint of inhibition, the IC50, lay at 180 µM.

Usually IC50 stands for the concentration at which inhibition is half-maximal. Low values mean higher potency, high ones lower potency.

The values above are taken from ChEMBL document CHEMBL1147240, “Lactones from the leaves of Litsea japonica and their anti-complement activity” (J Nat Prod, 2003).
